Reference: publication PMC6935685 (Pharmacology Research & Perspectives, 2019)
Values joined by “and” are separate entries in the source; they are usually repeats but may differ in a detail not shown here. Identical values can stand only once. Like-named read-outs stand apart in the source and are kept apart here.

What was measured:
[1] = biological target: T1, human MT1 (hMT1) (Homo sapiens, UniProt P48039); experiment: 2-[125I]-iodomelatonin competition binding, CHO-K1 membranes
[2] = biological target: T2, MT1 (Homo sapiens, UniProt P48039); experiment: Overall functionality from the signaling pathway panel
T2 sequence (P48039 whole entry): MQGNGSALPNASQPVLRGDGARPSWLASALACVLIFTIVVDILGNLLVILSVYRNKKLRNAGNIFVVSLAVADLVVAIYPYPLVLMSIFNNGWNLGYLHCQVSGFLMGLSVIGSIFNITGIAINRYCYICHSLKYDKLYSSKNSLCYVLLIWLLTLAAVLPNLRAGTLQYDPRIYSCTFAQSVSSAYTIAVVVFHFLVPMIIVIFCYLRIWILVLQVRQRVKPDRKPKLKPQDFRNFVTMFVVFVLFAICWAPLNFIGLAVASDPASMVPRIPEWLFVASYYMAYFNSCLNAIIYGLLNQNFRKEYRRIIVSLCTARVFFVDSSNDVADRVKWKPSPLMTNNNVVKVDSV

[3] = biological target: T3, MT2 (Homo sapiens, UniProt P49286); experiment: HTRF cAMP assay, antagonist mode cAMP; assay type: cell-based
T3 sequence (P49286 1-362): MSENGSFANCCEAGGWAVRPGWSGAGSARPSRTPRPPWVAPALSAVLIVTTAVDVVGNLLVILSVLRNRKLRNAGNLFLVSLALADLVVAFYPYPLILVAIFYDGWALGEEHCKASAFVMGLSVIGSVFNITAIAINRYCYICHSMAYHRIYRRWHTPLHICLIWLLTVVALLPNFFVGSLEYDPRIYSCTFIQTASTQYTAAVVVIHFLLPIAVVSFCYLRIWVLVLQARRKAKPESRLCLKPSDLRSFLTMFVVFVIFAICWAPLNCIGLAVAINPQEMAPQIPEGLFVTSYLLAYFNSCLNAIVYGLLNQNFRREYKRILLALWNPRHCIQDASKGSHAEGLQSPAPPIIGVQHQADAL

[4] = biological target: T3, MT2; experiment: Overall functionality from the signaling pathway panel
[5] = biological target: T1, human MT1 (hMT1); experiment: [35S]-GTPγS binding, agonist mode GTPγS; assay type: biochemical
[6] = biological target: T3, MT2; experiment: HTRF cAMP assay, agonist mode cAMP; assay type: cell-based; conditions: for Emax, cAMP (+): hMT2, inhibition of cAMP production, normalization vs melatonin
[7] = biological target: T4, human MT2 (hMT2) (Homo sapiens, UniProt P49286); experiment: 2-[125I]-iodomelatonin competition binding, CHO-K1 membranes
T4 sequence (P49286 1-362): T3 sequence (P49286 1-362)

[8] = biological target: T3, MT2; experiment: Receptor internalization, U2O-S cells; assay type: cell-based; conditions: for receptor internalization: MT2
[9] = biological target: T3, MT2; experiment: β-arrestin recruitment, PathHunter CHO-K1 cells; assay type: cell-based
[10] = biological target: T2, MT1; experiment: β-arrestin recruitment, PathHunter CHO-K1 cells; assay type: cell-based
[11] = biological target: T1, human MT1 (hMT1); experiment: [35S]-GTPγS binding, antagonist mode GTPγS; assay type: biochemical
[12] = biological target: T4, human MT2 (hMT2); experiment: [35S]-GTPγS binding, antagonist mode GTPγS; assay type: biochemical
[13] = biological target: T2, MT1; experiment: HTRF cAMP assay, agonist mode cAMP; assay type: cell-based; conditions: inhibition of cAMP production, normalization vs melatonin
[14] = biological target: T2, MT1; experiment: Receptor internalization, DLD-1 cells; assay type: cell-based
[15] = biological target: T4, human MT2 (hMT2); experiment: [35S]-GTPγS binding, agonist mode GTPγS; assay type: biochemical
[16] = biological target: T3, MT2; experiment: Cellular dielectric spectroscopy; assay type: cell-based; conditions: MT2
[17] = biological target: T2, MT1; experiment: Cellular dielectric spectroscopy; assay type: cell-based; conditions: MT1
[18] = MT1 Affinity (pKi), against 2-[125I]iodomelatonin

T1 sequence (P48039 whole entry): as the sequence (P48039 whole entry) above

| Molecule | Ki [1, 18] [nM] | MT1 Our data (functionality) [2] | MT2 Our data (functionality) [4] | Ki [7] [nM] | receptor internalization [8] | other results |
| --- | --- | --- | --- | --- | --- | --- |
| CCC(=O)NC1Cc2ccccc2C(c2ccccc2)C1 (centres unmarked) [4P‐PDOT, 4‐phenyl‐2‐propionamidotetraline, reference compound] | 141 | partial ago | partial ago | 1.07 | – | Ki ([1]; affinity for MT1, order of magnitude given in text): ~100 nM; antagonism in cAMP assay ([3]; MT2): completely inactive; induction of GTPγS binding [5]: does not induce GTPγS binding; Emax, cAMP (+) [6]: ~90% and 100%; EC50 ([6]; pEC50, cAMP production inhibition, MT2, text): 2 nM |
| COc1ccc2cccc(CCNC(C)=O)c2c1 [Agomelatine, N‐[2‐(7‐methoxynaphthalen‐1‐yl)ethyl]acetamide, reference compound] | – | ago | ago | – | – | MT1 Our data (functionality) ([2]; listed as S20098): agonists; MT2 Our data (functionality) ([4]; listed as S20098): agonists |
| CC(=O)NCCc1c(Cc2ccccc2)[nH]c2ccccc12 [Luzindole, N‐acetyl‐2‐benzyltryptamine, reference compound] | 257 | antago | partial ago | – | induces the internalization | EC50 [8]: ~10 nM; Emax ([3]; read-out: Emax, cAMP (−)): 55%; β-arrestin recruitment [9]: does not recruit; Emax, cAMP (+) [6]: 70% |
| COc1ccc2[nH]cc(CCNC(C)=O)c2c1 [Melatonin, N‐acetyl‐5‐methoxytryptamine, reference compound] | – | ago | – | – | – | – |
| COc1ccc2cccc(C(CO)CNC(=O)CF)c2c1 (centres unmarked) [S75436, 2‐fluoro‐N‐[3‐hydroxy‐2‐(7‐methoxy‐1‐naphthyl)propyl]acetamide] | – | agonists and ago | agonists and ago | 1.12 | – | Ki [1]: 9.12 nM |
| COc1ccc2c(c1)C(CNC(N)=O)Cc1ccccc1C2 (centres unmarked) [S77840, 1‐[(8‐methoxy‐10,11‐dihydro‐5H‐dibenzo[a,d]‐[7]annulen‐10‐yl)methyl]urea] | – | – | – | – | lack of capacity to provoke internalization | receptor internalization [14]: lack of capacity to provoke internalization; cell shape shift, CellKey [16]: failed to elicit any significant shift in shape |
| COc1ccc2[nH]cc(CCNC(=O)CI)c2c1 [SD6, N‐[2‐(5‐methoxy‐1H‐indol‐3‐yl)ethyl] iodoacetamide] | – | agonists and ago | agonists and ago | – | – | – |
| methoxyverapamil [D600, reference compound] | – | antago | – | – | did not induce | β-arrestin recruitment [10]: did not induce; MT1 Affinity (pKi) ([1]; against 2-[125I]iodomelatonin): 7 and 7.04; receptor internalization [14]: did not induce; β-arrestin recruitment [9]: did not induce; MT2 Affinity (pKi) ([7]; against 2-[125I]iodomelatonin): <6 |

Second part, led by results:

| Ki [1, 18] [nM] | MT1 Our data (functionality) [2] | MT2 Our data (functionality) [4] | Ki [7] [nM] | receptor internalization [8] | Molecule | other results |
| --- | --- | --- | --- | --- | --- | --- |
| 170 | – | – | – | does not induce internalization | O=C(NCCc1cccc2ccccc12)C1CCC1 [S20928, (N‐[2‐(1‐naphthyl)ethyl]cyclobutanecarboxamide)] | β-arrestin recruitment [10]: capacity to recruit; inhibition of melatonin-induced GTPγS binding [11]: fully inhibits; inhibition of melatonin-induced GTPγS binding [12]: slightly inhibits; Emax, cAMP (+) [13]: less than 25%; receptor internalization [14]: does not induce internalization; induction of GTPγS binding [15]: induces the binding of GTPγS; concentration of maximal effect (CellKey) [16]: ~100 nmol/L; Emax, cAMP (+) [6]: 50%; cell shape shift, CellKey [17]: failed to elicit any significant shift in shape |
| 603 | agonists | agonists and ago | 603 | not enough to elicit internalization | COc1ccc2ncn(CCNC(C)=O)c2c1 [S21278, N‐[2‐(6‐methoxy‐benzimidazol‐1‐yl)ethyl]acetamide] | β-arrestin recruitment [10]: complete recruitment |
| 9.77 | partial ago | ago | 7.94 | – | CCc1ccc2scc(CCNC(C)=O)c2c1 [S22153, N‐[2‐(5‐ethylbenzothiophen‐3‐yl)ethyl]acetamide] | – |
| 1.2 | agonists and ago | agonists and ago | – | exhibited subsequent internalization | COc1cc2c(CCNC(C)=O)c(I)[nH]c2cc1[N+](=O)[O-] [S27128, N‐[2‐(2‐iodo‐5‐methoxy‐6‐nitro‐1H‐indol‐3‐yl)ethyl]acetamide] | receptor internalization [14]: exhibited subsequent internalization |
| 4.37 | partial ago | – | 7.76 | – | COCC(CNC(C)=O)c1cccc2ccc(OC)cc12 (centres unmarked) [S73893, N‐[3‐methoxy‐2‐(7methoxy‐ 1‐naphthyl)propyl]acetamide] | – |
| 1.45 | agonists and ago | agonists and ago | 2.45 | – | COc1cc2c(CCNC(C)=O)c[nH]c2cc1I [SD1881, N‐[2‐(6‐iodo‐5‐methoxy‐1H‐indol‐3‐yl)ethyl]acetamide] | – |
| 17.4 | partial ago | ago | 10.2 | – | COc1ccc2[nH]cc(CCNC(C)=O)c2c1I [SD1882, N‐[2‐(4‐iodo‐5‐methoxy‐1H‐indol‐3‐yl)ethyl] acetamide] | concentration of maximal effect (CellKey) [17]: ~100 nmol/L |
| 45.7 | partial ago | ago | 47.9 | – | COc1cc(I)c2[nH]cc(CCNC(C)=O)c2c1 [SD1918, N‐[2‐(7‐iodo‐5‐methoxy‐1H‐indol‐3‐yl)ethyl]acetamide] | – |
